In patent publication US20050215649A1, “Conjugated alphatic dialdehyde disinfecting and sterilizing compositions and methods of using the same” (priority 2004, published 2005):
Where two headings read alike, the source gives them in different places.

How the values were obtained:
[1] = Storage stability of solutions at 0-5° C., pH 4; format: physicochemical; settings: pH 4, 0-5° C.
Procedure: Solutions containing about 2.7% of 2-butenedial buffered to pH 4 were stored at 0-5° C. for about 3 months to determine the effect of storage temperature on the stability of the solutions.

[2] = Storage stability of solutions at 25° C., effect of pH; format: physicochemical
Procedure: Solutions containing about 3% of 2-butenedial buffered to pH 3, 5 and 7 were stored at 25° C. for about 3 months to determine the effect of pH on the stability of the solutions.

[3] = system: spores of B. subtilis; assay: AOAC Sporicidal Test, B. subtilis spores; format: cell-based; settings: pH 4, 20° C., 24 hours
Procedure: (§1) In this example, a series of aqueous solutions containing from 2 to 0.5% of 2-butenedial, buffered at pH 4 with monopotassium hydrogen phosphate and acetic acid, were tested according to methods described in the AOAC Sporicidal Test to determine their effectiveness against spores of B. subtilis and C. sporogenes at 20° C. in 24 hours.

[4] = system: spores of C. sporogenes; assay: AOAC Sporicidal Test, C. sporogenes spores; format: cell-based; settings: pH 4, 20° C., 24 hours
Procedure: as §1

[5] = Use life stability at 25° C. for 14 days, effect of pH; format: physicochemical
Procedure: Solutions containing 2% of 2-butenedial buffered to pH 2.5, 3.5 and 4.5 were aged at 25° C. for 14 days to determine the effect of pH on use life stability.

[6] = system: Mycobacterium bovis BCG; format: cell-based; settings: for time within which biocidal: 0.5% 2-butenedial
[7] = Solubility in water; format: physicochemical
Description: 2-Butenedial is present in the composition, at use concentration, in amounts of between 0.5% and 1.0% by weight. Higher concentrations, e.g., up to 2%, or lower concentrations, e.g., above 0.25%, could be used if desired. The preferred concentration of 2-butenedial at use dilution is about 0.5% by weight. Higher concentrations of 2-butenedial may be used for shipping the composition to the point of use and the composition could then be diluted with water to the desired use concentration. The limit on the amount of 2-butenedial used in the concentrate composition is a function of the solubility of 2-butenedial in water, which is about 20% w/w. To achieve compositions with greater than 20% w/w, a water miscible co-solvent can be used. Typically, suitable co-solvents include low molecular weight alcohols and glycols. The optimum parameters for any given quantity to be sterilized or disinfected can be determined by routine experimentation using varying concentrations, treatment times, and temperatures as described herein.

[8] = 0.5% (w/w) butenedial, penicylinders
[9] = 1% (w/w) butenedial, penicylinders
[10] = 2% (w/w) butenedial, penicylinders

O=CC=CC=O [2-butenedial, 2-Butenedial]
% Butenedial ([1]; storage time 0 mo): 2.72%
% Butenedial ([1]; storage time 1 mo): 2.67%
% Butenedial ([1]; storage time 2 mo): 2.68%
% Butenedial ([1]; storage time 3 mo): 2.54%
Percent (%) Butenedial ([2]; pH 3, 25° C., storage time 0 months): 2.94%
Percent (%) Butenedial ([2]; pH 3, 25° C., storage time 1 month): 2.4%
Percent (%) Butenedial ([2]; pH 3, 25° C., storage time 2 months): 1.77%
Percent (%) Butenedial ([2]; pH 3, 25° C., storage time 3 months): 0.95%
Percent (%) Butenedial ([2]; pH 5, 25° C., storage time 0 months): 2.94%
Percent (%) Butenedial ([2]; pH 5, 25° C., storage time 1 month): 1.06%
Percent (%) Butenedial ([2]; pH 5, 25° C., storage time 2 months): 0.55%
Percent (%) Butenedial ([2]; pH 5, 25° C., storage time 3 months): 0.13%
Percent (%) Butenedial ([2]; pH 7, 25° C., storage time 0 months): 2.94%
Percent (%) Butenedial ([2]; pH 7, 25° C., storage time 1 month): 0.12%
Percent (%) Butenedial ([2]; pH 7, 25° C., storage time 2 months): 0.09%
Percent (%) Butenedial ([2]; pH 7, 25° C., storage time 3 months): 0.06%
acceptable storage stability ([2]; stored as one component at pH 3, 25° C.): about 3 months
Total No. of Positives(Failures/Total No. of Tests) [3, 8]: 0/30
Total No. of Positives(Failures/Total No. of Tests) ([3]; 0.5% (w/w) butenedial, sutures): 0/30
Total No. of Positives(Failures/Total No. of Tests) [3, 9]: 0/30
Total No. of Positives(Failures/Total No. of Tests) ([3]; 1% (w/w) butenedial, sutures): 0/30
Total No. of Positives(Failures/Total No. of Tests) [3, 10]: 0/30
Total No. of Positives(Failures/Total No. of Tests) ([3]; 2% (w/w) butenedial, sutures): 0/30
minimum effective concentration against spores [3]: about 0.5%
Total No. of Positives(Failures/Total No. of Tests) [4, 8]: 1/30
Total No. of Positives(Failures/Total No. of Tests) ([4]; 0.5% (w/w) butenedial, sutures): 0/30
Total No. of Positives(Failures/Total No. of Tests) [4, 9]: 0/30
Total No. of Positives(Failures/Total No. of Tests) ([4]; 1% (w/w) butenedial, sutures): 0/30
Total No. of Positives(Failures/Total No. of Tests) [4, 10]: 0/30
Total No. of Positives(Failures/Total No. of Tests) ([4]; 2% (w/w) butenedial, sutures): 0/30
minimum effective concentration against spores [4]: about 0.5%
acceptable use life stability ([5]; 25° C., pH 2.5, 3.5 and 4.5, minimum effective concentration 0.5%): at least 14 days
Percent (%) Butenedial ([5]; pH 2.5, 25° C., use life 0 days): 2.0%
Percent (%) Butenedial ([5]; pH 2.5, 25° C., use life 2 days): 1.94%
Percent (%) Butenedial ([5]; pH 2.5, 25° C., use life 4 days): 1.84%
Percent (%) Butenedial ([5]; pH 2.5, 25° C., use life 7 days): 1.78%
Percent (%) Butenedial ([5]; pH 2.5, 25° C., use life 10 days): 1.7%
Percent (%) Butenedial ([5]; pH 2.5, 25° C., use life 14 days): 1.6%
Percent (%) Butenedial ([5]; pH 3.5, 25° C., use life 0 days): 2.0%
Percent (%) Butenedial ([5]; pH 3.5, 25° C., use life 2 days): 1.92%
Percent (%) Butenedial ([5]; pH 3.5, 25° C., use life 4 days): 1.76%
Percent (%) Butenedial ([5]; pH 3.5, 25° C., use life 7 days): 1.6%
Percent (%) Butenedial ([5]; pH 3.5, 25° C., use life 10 days): 1.5%
Percent (%) Butenedial ([5]; pH 3.5, 25° C., use life 14 days): 1.4%
Percent (%) Butenedial ([5]; pH 4.5, 25° C., use life 0 days): 2.0%
Percent (%) Butenedial ([5]; pH 4.5, 25° C., use life 2 days): 1.73%
Percent (%) Butenedial ([5]; pH 4.5, 25° C., use life 4 days): 1.5%
Percent (%) Butenedial ([5]; pH 4.5, 25° C., use life 7 days): 1.32%
Percent (%) Butenedial ([5]; pH 4.5, 25° C., use life 10 days): 1.0%
Percent (%) Butenedial ([5]; pH 4.5, 25° C., use life 14 days): 0.8%
time within which biocidal ([6]; pH 4, 20° C.): ≤ 30 min
time within which biocidal ([6]; pH 5.5, 20° C.): ≤ 30 min
Percent Reduction of Organisms ([6]; 0.5% (w/w) butenedial, pH 4, 20° C., 5 min): >99.78%
Percent Reduction of Organisms ([6]; 0.5% (w/w) butenedial, pH 4, 20° C., 15 min): >99.996%
Percent Reduction of Organisms ([6]; 0.5% (w/w) butenedial, pH 4, 20° C., 30 min): >100%
Percent Reduction of Organisms ([6]; 0.5% (w/w) butenedial, pH 4, 20° C., 60 min): >100%
Percent Reduction of Organisms ([6]; 0.5% (w/w) butenedial, pH 5.5, 20° C., 5 min): 83.5%
Percent Reduction of Organisms ([6]; 0.5% (w/w) butenedial, pH 5.5, 20° C., 15 min): >99.996%
Percent Reduction of Organisms ([6]; 0.5% (w/w) butenedial, pH 5.5, 20° C., 30 min): >100%
Percent Reduction of Organisms ([6]; 0.5% (w/w) butenedial, pH 5.5, 20° C., 60 min): >100%
Percent Reduction of Organisms ([6]; 1% (w/w) butenedial, pH 4, 20° C., 5 min): >99.97%
Percent Reduction of Organisms ([6]; 1% (w/w) butenedial, pH 4, 20° C., 15 min): >99.997%
Percent Reduction of Organisms ([6]; 1% (w/w) butenedial, pH 4, 20° C., 30 min): >100%
Percent Reduction of Organisms ([6]; 1% (w/w) butenedial, pH 4, 20° C., 60 min): >100%
Percent Reduction of Organisms ([6]; 1% (w/w) butenedial, pH 5.5, 20° C., 5 min): 94.5%
Percent Reduction of Organisms ([6]; 1% (w/w) butenedial, pH 5.5, 20° C., 15 min): >99.997%
Percent Reduction of Organisms ([6]; 1% (w/w) butenedial, pH 5.5, 20° C., 30 min): >100%
Percent Reduction of Organisms ([6]; 1% (w/w) butenedial, pH 5.5, 20° C., 60 min): >100%
Percent Reduction of Organisms ([6]; 2% (w/w) butenedial, pH 4, 20° C., 5 min): >99.98%
Percent Reduction of Organisms ([6]; 2% (w/w) butenedial, pH 4, 20° C., 15 min): >99.998%
Percent Reduction of Organisms ([6]; 2% (w/w) butenedial, pH 4, 20° C., 30 min): >100%
Percent Reduction of Organisms ([6]; 2% (w/w) butenedial, pH 4, 20° C., 60 min): >100%
Percent Reduction of Organisms ([6]; 2% (w/w) butenedial, pH 5.5, 20° C., 5 min): 95%
Percent Reduction of Organisms ([6]; 2% (w/w) butenedial, pH 5.5, 20° C., 15 min): 99.95%
Percent Reduction of Organisms ([6]; 2% (w/w) butenedial, pH 5.5, 20° C., 30 min): >100%
Percent Reduction of Organisms ([6]; 2% (w/w) butenedial, pH 5.5, 20° C., 60 min): >100%
minimum effective concentration ([6]; based on results on spores and tubercular bacteria): 0.5%
solubility in water [7]: about 20 % w/w
